# Results from patent publication EP0012139A1, “Therapeutic agent for stimulating the immune response in a mammal” (AMERICAN CYANAMID COMPANY, priority 1978, dated 1980).
# Counter-ions that a name gives are not always drawn.
# What was measured:
# Rauscher leukemia virus = test: Antibody response to sheep red blood cells in Rauscher leukemia virus-infected (leukemic) mice, hemagglutinin test; format: in vivo, BALB/C mice; details: for Hemagglutinin Titer* Test 1: reciprocal of serum dilution producing at least 50% agglutination, infected control 8, non-infected control 1024; for Hemagglutinin Titer* Test 6: infected control 32, non-infected control 2048; for Hemagglutinin Titer* Test 5: infected control 128, non-infected control 4096
# [1] = test system: transplantable C3H mammary tumor; test: Transplanted C3H mammary tumor growth in mice; details: for Ave. tumor diameter (mm.^2) (weeks after tumor implantation 3): week 3, untreated control 22; for Ave. tumor diameter (mm.^2) (weeks after tumor implantation 4): week 4, untreated control 73; for Ave. tumor diameter (mm.^2) (weeks after tumor implantation 5): week 5, untreated control 149; for Ave. tumor diameter (mm.^2) (weeks after tumor implantation 6): week 6, untreated control 218; for Ave. tumor diameter (mm.^2) (weeks after tumor implantation 7): week 7, untreated control 316
# Protocol: C3H/HEB/J male mice were inoculated subcutaneously with five 2 mm. fragments of a transplantable C3H mammary tumor on day zero. Drugs were administered once every 7 days for 5 weeks, starting 14 days after tumor inoculation. When test drug (or the control, Corynebacterium parvum) was administered in combination with Cytoxan, it was given 4 days after the Cytoxan. […] Tumor diameters were measured by means of a Vernier caliper. Test substances were considered active if tumor growth, as indicated by tumor diameter, was inhibited by 50% or more.
# [2] = 100 mg/kg orally days 6, 7, 8, reciprocal serum dilution, infected control 32, non-infected control 512
# [3] = Cytoxan 60 mg./kg. intraperitoneally alone
# [4] = 100 mg./kg. orally + Cytoxan 60 mg./kg.
# [5] = 200 mg./kg. orally + Cytoxan 60 mg./kg.
# [6] = 300 mg./kg. orally + Cytoxan 60 mg./kg.
compound,measurement,setting,value
"CN(C)CCCOc1ccc2cc3ccc(OCCCN(C)C)cc3nc2c1 [3,6-Bis-(3-dimethylaminopropoxy)acridine]",Hemagglutinin Titer* Test 1,"Rauscher leukemia virus; 100 mg/kg orally days 6, 7, 8",128
same,Hemagglutinin Titer* Test 2,Rauscher leukemia virus; [2],128
"CCCCN(CCCC)CCOc1ccc2cc3ccc(OCCN(CCCC)CCCC)cc3nc2c1 [3,6-Bis-(2-di-n-butylaminoethoxy)acri-dine trihydrochloride]",Hemagglutinin Titer* Test 1,"Rauscher leukemia virus; 100 mg/kg orally days 6, 7, 8",32
"O=P1(N(CCCl)CCCl)NCCCO1 (stereo not drawn) [Cytoxan, reference compound]",effect of Cytoxan dose on mammary tumor growth,[1]; 60 mg./kg. alone,ineffective dose
same,Ave. tumor diameter (mm.^2) (weeks after tumor implantation 3),"[1]; Cytoxan 60 mg./kg. intraperitoneally alone, once every 7 days",47 mm.^2
same,No. Survivors No. Treated,"[1]; Cytoxan 60 mg./kg. intraperitoneally alone, untreated control 7/8",6/8
same,Ave. tumor diameter (mm.^2) (weeks after tumor implantation 4),[1]; [3],101 mm.^2
same,Ave. tumor diameter (mm.^2) (weeks after tumor implantation 5),[1]; [3],187 mm.^2
same,Ave. tumor diameter (mm.^2) (weeks after tumor implantation 6),[1]; [3],277 mm.^2
same,Ave. tumor diameter (mm.^2) (weeks after tumor implantation 7),[1]; [3],363 mm.^2
"CN(C)C(C)(C)COc1ccc2cc3ccc(OCC(C)(C)N(C)C)cc3nc2c1 [3,6-Bis-(2-dimethylamino-2-methylpro-poxy)acridine trihydrochloride]",Hemagglutinin Titer* Test 1,"Rauscher leukemia virus; 100 mg/kg orally days 6, 7, 8",64
"CCN(CC)CCOc1ccc2cc3ccc(OCCN(CC)CC)cc3nc2c1.Cl.Cl.Cl [3,6-Bis-(2-diethylaminoethoxy)acridine trihydrochloride]",Hemagglutinin Titer* Test 6,"Rauscher leukemia virus; 37.5 mg/kg orally days 6, 7, 8, reciprocal serum dilution",64
same,Hemagglutinin Titer* Test 4,"Rauscher leukemia virus; 50 mg/kg orally days 6, 7, 8, reciprocal serum dilution, infected control 32, non-infected control 512",128
same,Hemagglutinin Titer* Test 5,"Rauscher leukemia virus; 50 mg/kg orally days 6, 7, 8, reciprocal serum dilution",128
same,Hemagglutinin Titer* Test 6,"Rauscher leukemia virus; 75 mg/kg orally days 6, 7, 8, reciprocal serum dilution",128
same,Hemagglutinin Titer* Test 3,Rauscher leukemia virus; [2],128
same,Hemagglutinin Titer* Test 4,Rauscher leukemia virus; [2],256
same,Hemagglutinin Titer* Test 5,"Rauscher leukemia virus; 100 mg/kg orally days 6, 7, 8, reciprocal serum dilution",512
same,Hemagglutinin Titer* Test 6,"Rauscher leukemia virus; 150 mg/kg orally days 6, 7, 8, reciprocal serum dilution",128
same,Hemagglutinin Titer* Test 5,"Rauscher leukemia virus; 200 mg/kg orally days 6, 7, 8, reciprocal serum dilution",512
same,Hemagglutinin Titer* Test 6,"Rauscher leukemia virus; 300 mg/kg orally days 6, 7, 8, reciprocal serum dilution",128
same,Hemagglutinin Titer* Test 6,"Rauscher leukemia virus; 600 mg/kg orally days 6, 7, 8, reciprocal serum dilution",256
same,Ave. tumor diameter (mm.^2) (weeks after tumor implantation 3),[1]; 100 mg./kg. orally + Cytoxan 60 mg./kg. i.p. (given 4 days after Cytoxan),34 mm.^2
same,Ave. tumor diameter (mm.^2) (weeks after tumor implantation 4),[1]; [4],53 mm.^2
same,Ave. tumor diameter (mm.^2) (weeks after tumor implantation 5),[1]; [4],112 mm.^2
same,Ave. tumor diameter (mm.^2) (weeks after tumor implantation 6),[1]; [4],149 mm.^2
same,Ave. tumor diameter (mm.^2) (weeks after tumor implantation 7),[1]; [4],107 mm.^2
same,Ave. tumor diameter (mm.^2) (weeks after tumor implantation 3),[1]; 200 mg./kg. orally + Cytoxan 60 mg./kg. i.p. (given 4 days after Cytoxan),32 mm.^2
same,Ave. tumor diameter (mm.^2) (weeks after tumor implantation 4),[1]; [5],66 mm.^2
same,Ave. tumor diameter (mm.^2) (weeks after tumor implantation 5),[1]; [5],82 mm.^2
same,Ave. tumor diameter (mm.^2) (weeks after tumor implantation 6),[1]; [5],115 mm.^2
same,Ave. tumor diameter (mm.^2) (weeks after tumor implantation 7),[1]; [5],135 mm.^2
same,Ave. tumor diameter (mm.^2) (weeks after tumor implantation 3),"[1]; 200 mg./kg. orally alone, once every 7 days",22 mm.^2
same,Ave. tumor diameter (mm.^2) (weeks after tumor implantation 4),[1]; 200 mg./kg. orally alone,44 mm.^2
same,Ave. tumor diameter (mm.^2) (weeks after tumor implantation 5),[1]; 200 mg./kg. orally alone,109 mm.^2
same,Ave. tumor diameter (mm.^2) (weeks after tumor implantation 6),[1]; 200 mg./kg. orally alone,148 mm.^2
same,Ave. tumor diameter (mm.^2) (weeks after tumor implantation 7),[1]; 200 mg./kg. orally alone,223 mm.^2
same,Ave. tumor diameter (mm.^2) (weeks after tumor implantation 3),[1]; 300 mg./kg. orally + Cytoxan 60 mg./kg. i.p. (given 4 days after Cytoxan),37 mm.^2
same,Ave. tumor diameter (mm.^2) (weeks after tumor implantation 4),[1]; [6],71 mm.^2
same,Ave. tumor diameter (mm.^2) (weeks after tumor implantation 5),[1]; [6],99 mm.^2
same,Ave. tumor diameter (mm.^2) (weeks after tumor implantation 6),[1]; [6],128 mm.^2
same,Ave. tumor diameter (mm.^2) (weeks after tumor implantation 7),[1]; [6],160 mm.^2
same,Ave. tumor diameter (mm.^2) (weeks after tumor implantation 3),"[1]; 300 mg./kg. orally alone, once every 7 days",61 mm.^2
same,Ave. tumor diameter (mm.^2) (weeks after tumor implantation 4),[1]; 300 mg./kg. orally alone,98 mm.^2
same,Ave. tumor diameter (mm.^2) (weeks after tumor implantation 5),[1]; 300 mg./kg. orally alone,220 mm.^2
same,Ave. tumor diameter (mm.^2) (weeks after tumor implantation 6),[1]; 300 mg./kg. orally alone,375 mm.^2
same,inhibitory effect on mammary tumor growth compared to the untreated control,"[1]; administered alone at 300, 200 and 100 mg./kg. every week for 5 weeks",only the 200 mg./kg. dose level produced an inhibitory effect
same,tumor growth being inhibited,"[1]; combined with Cytoxan 60 mg./kg., all dose levels (300, 200, 100 mg./kg.)",50 - 65%
same,tumor diameter of treated mice averaging,"[1]; combined with Cytoxan 60 mg./kg., all dose levels, 316 mm.^2 for the untreated controls",107 - 160 mm.^2
"CN(C)CCOc1ccc2cc3ccc(OCCN(C)C)cc3nc2c1 [3,6-Bis-(2-dimethylaminoethoxy)acridine]",Hemagglutinin Titer* Test 1,"Rauscher leukemia virus; 100 mg/kg orally days 6, 7, 8",128
same,Hemagglutinin Titer* Test 2,Rauscher leukemia virus; [2],128
